From ChEMBL document CHEMBL6092217 (Eur J Med Chem, 2024)
Calls of active or inactive are those of the source. The calls are words filed in the database; no cut-off is given here.

Legend:
[1] = Toxicity in BALB/c mouse assessed as lung damage at 10 to 40 mg/kg, iv measured after 21 days by H and E staining based analysis; format: organism-based; details: in vivo, 504 h, dose 10-40 mg/kg, time 21 day
[2] = Toxicity in ICR mouse assessed as effect on hemoglobin level at 10 to 40 mg/kg, iv administered every 2 days and measured after 14 days; format: organism-based; details: in vivo, 336 h, dose 10-40 mg/kg, time 14 day
HT-29 [3] = assay: Induction of apoptosis in human HT-29 cells assessed as early apoptotic cells at 200 nM incubated for 24 hrs by FITC/PI staining based flow cytometry analysis (reference value: 8.14%); format: functional
HT-29 [4] = assay: Induction of cell cycle arrest in human HT-29 cells assessed as accumulation of cells at G1 phase at 200 nM incubated for 24 hrs by flow cytometry analysis (reference value: 67.6%); format: functional
HT-29 [5] = assay: Induction of apoptosis in human HT-29 cells assessed as late apoptotic cells at 100 nM incubated for 24 hrs by FITC/PI staining based flow cytometry analysis (reference value: 0.20%); format: functional
[6] = Toxicity in BALB/c mouse assessed as spleen damage at 10 to 40 mg/kg, iv measured after 21 days by H and E staining based analysis; format: organism-based; details: in vivo, 504 h, dose 10-40 mg/kg, time 21 day
HT-29 [7] = assay: Induction of apoptosis in human HT-29 cells assessed as viable cells at 50 nM incubated for 24 hrs by FITC/PI staining based flow cytometry analysis (reference value: 91.6%); format: functional; details: read-out: Activity
[8] = Toxicity in ICR mouse assessed as effect on WBC count at 10 to 40 mg/kg, iv administered every 2 days and measured after 14 days; format: organism-based; details: in vivo, 336 h, dose 10-40 mg/kg, time 14 day
PC-3 = assay: Antiproliferative activity against human PC-3 cells assessed as cell viability incubated for 72 hrs by MTT assay; format: functional, cell-based; details: PC-3, 72 h
HT-29 [9] = assay: Induction of cell cycle arrest in human HT-29 cells assessed as accumulation of cells at G2 phase at 200 nM incubated for 24 hrs by flow cytometry analysis (reference value: 13 %); format: functional
[10] = Toxicity in BALB/c mouse assessed as heart damage at 10 to 40 mg/kg, iv measured after 21 days by H and E staining based analysis; format: organism-based; details: in vivo, 504 h, dose 10-40 mg/kg, time 21 day
MCF7 = assay: Antiproliferative activity against human MCF7 cells assessed as cell viability incubated for 72 hrs by MTT assay; format: functional, cell-based; details: MCF7, 72 h
A549 = assay: Inhibition of cell invasion in human A549 cells measured for 24 hrs by Transwell assay; format: functional, cell-based; details: dose 50-100 nM
HT-29 [11] = assay: Induction of apoptosis in human HT-29 cells assessed as viable cells at 100 nM incubated for 24 hrs by FITC/PI staining based flow cytometry analysis (reference value: 91.6%); format: functional; details: read-out: Activity
HT-29 [12] = assay: Induction of apoptosis in human HT-29 cells assessed as early apoptotic cells at 50 nM incubated for 24 hrs by FITC/PI staining based flow cytometry analysis (reference value: 8.14%); format: functional
HT-29 [13] = assay: Inhibition of colony formation in human HT-29 cells; format: functional, cell-based; details: dose 25-200 nM
[14] = Resistance index, ratio of IC50 for human A549/TxR cells to IC50 for human A549 cells; format: functional
RKO = assay: Antiproliferative activity against human RKO cells assessed as cell viability incubated for 72 hrs by MTT assay; format: functional, cell-based
[15] = Toxicity in ICR mouse assessed as effect on CK level at 10 to 40 mg/kg, iv administered every 2 days and measured after 14 days; format: organism-based; details: in vivo, 336 h, dose 10-40 mg/kg, time 14 day
HT-29 [16] = assay: Induction of apoptosis in human HT-29 cells assessed as late apoptotic cells at 200 nM incubated for 24 hrs by FITC/PI staining based flow cytometry analysis (reference value: 0.20%); format: functional
HT-29 [17] = assay: Induction of apoptosis in human HT-29 cells assessed as upregulation of cleaved caspase 3 level at 50 to 200 nM incubated for 24 hrs by Western blot analysis; format: functional, cell-based; details: dose 50-200 nM
[18] = MRT (0 to t) in Sprague-Dawley rat at 5 mg/kg, iv measured upto 24 hrs by HPLC-MS analysis; format: ADME, organism-based; details: in vivo
Tubulin (Homo sapiens) = Tubulin (Homo sapiens) (UniProt P68371+Q9H4B7+P0DPH7+P68366+Q13509+Q71U36+P04350+Q3ZCM7+P07437+P68363+Q9BQE3+Q6PEY2+Q13885+Q9BVA1+Q9BUF5); assay: Inhibition of tubulin polymerization in human HT-29 cells assessed as reduction in beta-tubulin expression 50 to 200 nM incubated for 24 hrs by Western blot analysis; format: cell-based; details: dose 50-200 nM
Mitochondrial membrane [19] = assay: Induction of mitochondrial membrane potential loss in human HT-29 cells incubated for 24 hrs by JC-1 staining based confocal microscopic analysis; format: cell membranes; details: dose 50-100 nM
[20] = Toxicity in ICR mouse assessed as effect on CREA level at 10 to 40 mg/kg, iv administered every 2 days and measured after 14 days; format: organism-based; details: in vivo, 336 h, dose 10-40 mg/kg, time 14 day
HT-29 [21] = assay: Antitumor activity against human HT-29 cells xenografted in BALB/c mouse assessed as tumor growth inhibition at 40 mg/kg, iv measured after 21 days; format: functional; details: HT-29, 504 h, time 21 day, read-out: TGI
HT-29 [22] = assay: Induction of ROS accumulation in human HT-29 cells incubated for 24 hrs by DCFH-DA staining based microscopic analysis; format: functional, cell-based; details: dose 50-100 nM
HT-29 [23] = assay: Induction of apoptosis in human HT-29 cells assessed as necrotic cells at 50 nM incubated for 24 hrs by FITC/PI staining based flow cytometry analysis (reference value: 0.017 %); format: functional
[24] = Volume of distribution at steady state in Sprague-Dawley rat at 5 mg/kg, iv measured upto 24 hrs by HPLC-MS analysis; format: ADME, organism-based; details: in vivo, read-out: Vdss
HepG2 = assay: Antiproliferative activity against human HepG2 cells assessed as cell viability incubated for 72 hrs by MTT assay; format: functional, cell-based; details: HepG2, 72 h
HT-29 [25] = assay: Induction of cell cycle arrest in human HT-29 cells assessed as accumulation of cells at G2 phase at 100 nM incubated for 24 hrs by flow cytometry analysis (reference value: 13 %); format: functional
HT-29 [26] = assay: Induction of cell cycle arrest in human HT-29 cells assessed as increase in cyclin-B1 expression incubated for 24 hrs by Western blot analysis; format: functional, cell-based; details: dose 50-200 nM
[27] = Toxicity in ICR mouse assessed as effect on LDH level at 10 to 40 mg/kg, iv administered every 2 days and measured after 14 days; format: organism-based; details: in vivo, 336 h, dose 10-40 mg/kg, time 14 day
Mitochondrial membrane [28] = assay: Induction of mitochondrial membrane potential loss in human HT-29 cells assessed as increase in green fluorescence at 50 to 100 nM incubated for 24 hrs by JC-1 staining based confocal microscopic analysis; format: cell membranes; details: dose 50-100 nM
[29] = Clerance in Sprague-Dawley rat at 5 mg/kg, iv measured upto 24 hrs by HPLC-MS analysis; format: ADME, organism-based; details: in vivo
HT-29 [30] = assay: Antiproliferative activity against human HT-29 cells assessed as cell viability incubated for 72 hrs by MTT assay; format: functional, cell-based; details: HT-29, 72 h
[31] = Toxicity in ICR mouse assessed as effect on ALT level at 10 to 40 mg/kg, iv administered every 2 days and measured after 14 days; format: organism-based; details: in vivo, 336 h, dose 10-40 mg/kg, time 14 day

For `COc1ccc(N(C)c2nc(/C=C/c3cccc(OC)c3)nc3ccccc23)cc1`, the Activity [1] was “Non-toxic”, the Activity [2] was “Non-toxic” and the Activity (HT-29 [3]) was 18.2%. For the same molecule, the Activity (HT-29 [4]) was 23.5%, the Activity (HT-29 [5]) was 27.2% and the Activity [6] was “Non-toxic”. The viability at 0.05 µM (HT-29 [7]) was 72%, the Activity [8] was “Non-toxic” and the IC50 (PC-3) was 130 nM. The Activity (HT-29 [9]) was 69.8%, the Activity [10] was “Non-toxic” and the IC50 (MCF7) was 110 nM. The inhibition (A549) was “Dose-dependent-effect”, the viability at 0.1 µM (HT-29 [11]) was 67.2% and the Activity (HT-29 [12]) was 12.7%. The inhibition (HT-29 [13]) was “Dose-dependent-effect”, the “Ratio IC50” value [14] was 2.53 and the IC50 (RKO) was 100 nM. The Activity [15] was “Non-toxic”, the Activity (HT-29 [16]) was 37.3% and the Activity (HT-29 [17]) was “Active”. For the same molecule, the MRT last at 24 h [18] was 46.8 min, the inhibition (Tubulin (Homo sapiens)) was “Active” and the Activity (Mitochondrial membrane [19]) was “Dose-dependent-effect”. The Activity [20] was “Non-toxic”, the inhibition in vivo at 40 mg/kg (HT-29 [21]) was 74.2% and the Activity (HT-29 [22]) was “Dose-dependent-effect”. It also gave an Activity (HT-29 [23]) of 1.79%, a Vd [24] of 1.03 L/kg and an IC50 (HepG2) of 190 nM. For the same molecule, the Activity (HT-29 [25]) was 39.8%, the Activity (HT-29 [26]) was “Dose-dependent-effect” and the Activity [27] was “Non-toxic”. The Activity (Mitochondrial membrane [28]) was “Active”, the clearance [29] was 22.2 mL/min/kg and the IC50 (HT-29 [30]) was 51 nM. For the same molecule, the Activity [31] was “Non-toxic”.
